Reference: patent US20080153760A1, “Haircare Use Of C-Glycoside Derivatives” (L'OREAL, priority 2005, published 2008)

Assay: Degree of premature breaking of hair, tensile test
Details: parameter R; natural African hair immersed three days at 40° C. in composition of 5% by weight compound and 95% water, no final rinsing; hairs 30 mm, pulled at 10 mm/minute; untreated control 0.27
Method: The hair used for the following tests was regulated beforehand in a glove box at 25° C. and 45% relative humidity for about 24 hours. This was natural curly African hair.
The four abovementioned compounds were respectively formulated in the form of a composition comprising 5% by weight of the compound under consideration and 95% by weight of water relative to the total weight of the composition.
Four batches of natural African hair were treated, respectively, with each of the four compositions according to the following protocol: the hair is immersed for three days at 40° C. in the composition under consideration, without final rinsing, and its degree of premature breaking is then assessed by comparison with that of a batch of untreated natural control hair.
The degree of premature breaking of the hair is characterized by the following parameter R:
R=1−(number of hairs showing breakage under tension in the hardening zone/N),
N being the total number of hairs tested.
The corresponding mechanical tests are performed using a Zwicko tensile testing machine on hairs 30 mm long. The hairs were pulled at a speed of 10 mm/minute.

| SMILES | Degree of premature breaking |
| --- | --- |
| CC(O)C[C@@H]1OC[C@@H](O)[C@H](O)[C@H]1O (stereo partly drawn) [Compound 1, C-β-D-xylopyranoside-2-hydroxypropane] | 0.17 |
| CC(=O)C[C@@H]1OC[C@@H](O)[C@H](O)[C@H]1O [Compound 2, C-β-D-Xylopyranoside-n-propan-2-one] | 0.20 |
| CC(=O)C[C@@H]1O[C@H](CO)[C@@H](O[C@@H]2O[C@H](CO)[C@H](O)[C@H](O)[C@H]2O)[C@H](O)[C@H]1O [Compound 3, C-β-D-Lactopyranoside-n-propan-2-one] | 0.13 |
| CC(=O)C[C@@H]1O[C@H](CO)[C@@H](O)[C@H](O)[C@H]1O [Compound 4, C-β-D-glucopyranoside-n-propan-2-one] | 0.23 |
